Like-named read-outs stand apart in the source and are kept apart here. Bridge positions count the residues as written; N and C are the ends. Square brackets hold non-standard residues; d marks the D form. Ends that are not written are not given here. Peptide text beside a SMILES is read from it. * marks the point of attachment. X2 = O=C(O)CN1CCN(CC(=O)O)CCN(CC(=O)NCCN2C(=O)CC(*)C2=O)CC1; Lys(N3) = [N-]=[N+]=NCCCC[C@H](N)C(=O)O; Pra = C#CC[C@H](N)C(=O)O
How the values were obtained:
[1] = target: T1, Human αvβ6 (Homo sapiens, UniProt P06756+P18564); test: competitive integrin binding assay (isoDGR-peroxidase probe), αvβ6-coated plates; settings: competition with isoDGR-peroxidase on αvβ6-coated plates; mean ± SE of n independent experiments (n in the column beside)
T1 construct: purchased Bio-Techne
T1 sequence (P06756 31-992 limits assumed): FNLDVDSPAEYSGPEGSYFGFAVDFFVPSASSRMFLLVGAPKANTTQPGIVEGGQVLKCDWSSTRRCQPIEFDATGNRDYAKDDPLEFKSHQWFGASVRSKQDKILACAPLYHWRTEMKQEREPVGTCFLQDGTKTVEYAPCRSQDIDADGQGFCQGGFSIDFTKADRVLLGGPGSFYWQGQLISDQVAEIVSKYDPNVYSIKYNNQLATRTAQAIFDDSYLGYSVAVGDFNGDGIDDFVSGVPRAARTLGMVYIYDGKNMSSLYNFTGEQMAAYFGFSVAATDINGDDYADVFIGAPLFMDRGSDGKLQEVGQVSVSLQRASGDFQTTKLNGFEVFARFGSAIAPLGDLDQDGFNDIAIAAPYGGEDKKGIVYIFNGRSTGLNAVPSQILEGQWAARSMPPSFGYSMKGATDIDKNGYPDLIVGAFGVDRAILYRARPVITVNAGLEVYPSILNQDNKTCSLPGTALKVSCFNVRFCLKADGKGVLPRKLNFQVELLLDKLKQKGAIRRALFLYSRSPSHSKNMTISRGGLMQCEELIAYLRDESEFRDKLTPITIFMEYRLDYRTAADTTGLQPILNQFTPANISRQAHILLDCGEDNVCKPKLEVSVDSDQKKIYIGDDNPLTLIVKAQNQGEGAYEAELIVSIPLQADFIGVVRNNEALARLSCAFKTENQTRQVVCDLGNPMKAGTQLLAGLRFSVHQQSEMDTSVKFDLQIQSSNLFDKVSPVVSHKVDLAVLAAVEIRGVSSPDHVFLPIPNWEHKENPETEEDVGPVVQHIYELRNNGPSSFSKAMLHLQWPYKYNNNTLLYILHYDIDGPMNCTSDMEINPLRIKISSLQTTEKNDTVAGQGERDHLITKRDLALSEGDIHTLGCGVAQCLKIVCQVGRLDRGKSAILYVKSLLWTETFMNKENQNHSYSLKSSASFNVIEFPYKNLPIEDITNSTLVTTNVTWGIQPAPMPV
T1 sequence (P18564 22-707 limits assumed): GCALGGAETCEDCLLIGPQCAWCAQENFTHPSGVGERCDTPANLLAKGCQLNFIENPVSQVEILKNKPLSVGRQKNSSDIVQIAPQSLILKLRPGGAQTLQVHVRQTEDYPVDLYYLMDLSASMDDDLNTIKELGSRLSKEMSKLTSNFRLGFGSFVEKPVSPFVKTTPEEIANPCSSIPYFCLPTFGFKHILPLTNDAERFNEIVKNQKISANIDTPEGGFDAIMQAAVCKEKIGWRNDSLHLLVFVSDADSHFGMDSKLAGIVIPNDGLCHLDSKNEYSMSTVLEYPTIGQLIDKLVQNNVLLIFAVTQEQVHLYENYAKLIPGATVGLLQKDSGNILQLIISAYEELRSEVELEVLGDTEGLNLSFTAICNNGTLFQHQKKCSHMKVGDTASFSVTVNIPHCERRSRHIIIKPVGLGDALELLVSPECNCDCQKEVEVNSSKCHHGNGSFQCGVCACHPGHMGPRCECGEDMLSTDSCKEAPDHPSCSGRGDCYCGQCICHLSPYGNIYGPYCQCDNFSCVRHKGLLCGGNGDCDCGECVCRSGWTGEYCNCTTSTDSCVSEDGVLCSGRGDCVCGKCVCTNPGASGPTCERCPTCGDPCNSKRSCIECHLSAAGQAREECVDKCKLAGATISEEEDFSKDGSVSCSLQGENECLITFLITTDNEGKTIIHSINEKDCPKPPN
Method: Peptides were prepared by chemical synthesis; their identity and purity were checked by mass spectrometry (MS) and reverse-phase HPLC analysis. The affinity of peptides for αvβ6-coated plates was determined by competitive binding assay using an isoDGR peptide (an RGD mimetic) labeled with peroxidase as a probe for the integrin-binding site. Cell adhesion assays were carried out as described previously.
Figure S2. Competitive binding of isoDGR-peroxidase conjugate with peptide 5, 5a and 2a to αvβ6-coated microtiter plates.
The competitive binding assay was performed as previously described, using an isoDGR peptide (an RGD mimetic) labeled with peroxidase (isoDGR-HRP) as a probe for the integrin-binding site. A representative experiment (mean ± SE of 3-4 technical replicates) is shown. The resulting Ki values are shown (mean ± SE of n=3-7 independent experiments, see also Table […]
(1 picture or pasted object on this page, not shown here)
Figure S10. Biochemical characterization of 5a- and 2a-NOTA conjugates. […]
C) Competitive binding of isoDGR-HRP to αvβ6-coated microtiter plates with peptides and peptide-NOTA conjugates, as measured by competitive ELISA. […]
D) Stability of 5a-NOTA after labeling with 18F, as determined by RP-HPLC analysis using an […]

[2] = target: T2, Human αvβ8 (Homo sapiens, UniProt P06756+P26012); design: method as in PMID 31755501; settings: competition with isoDGR-peroxidase; mean ± SE of n independent experiments; ref [25]; read-out: Ki (competitive integrin binding assay) Human αvβ8; cited from earlier work
T2 construct: purchased Bio-Techne
T2 sequence (P06756 31-992 limits assumed): as the sequence (P06756 31-992 limits assumed) above
T2 sequence (P26012 43-684 limits assumed): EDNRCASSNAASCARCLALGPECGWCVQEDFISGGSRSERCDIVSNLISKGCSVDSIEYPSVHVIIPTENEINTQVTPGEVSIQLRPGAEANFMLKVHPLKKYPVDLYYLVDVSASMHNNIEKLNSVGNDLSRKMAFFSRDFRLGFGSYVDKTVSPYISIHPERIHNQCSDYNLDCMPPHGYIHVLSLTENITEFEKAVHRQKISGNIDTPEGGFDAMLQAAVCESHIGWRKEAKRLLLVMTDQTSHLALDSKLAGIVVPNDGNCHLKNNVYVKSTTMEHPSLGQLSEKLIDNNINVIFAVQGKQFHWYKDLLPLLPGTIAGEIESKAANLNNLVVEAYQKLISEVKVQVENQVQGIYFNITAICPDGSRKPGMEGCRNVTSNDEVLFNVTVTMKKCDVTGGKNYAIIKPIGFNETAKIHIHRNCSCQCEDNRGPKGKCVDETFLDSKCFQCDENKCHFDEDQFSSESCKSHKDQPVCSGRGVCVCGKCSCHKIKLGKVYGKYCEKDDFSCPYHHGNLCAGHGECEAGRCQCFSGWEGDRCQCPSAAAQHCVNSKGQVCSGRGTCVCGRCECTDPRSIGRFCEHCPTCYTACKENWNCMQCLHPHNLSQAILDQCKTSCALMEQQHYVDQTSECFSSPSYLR

[3] = target: T1, Human αvβ6; design: method as in PMID 31755501; settings: competition with isoDGR-peroxidase on αvβ6-coated plates; mean ± SE of n independent experiments; ref [25]; read-out: Ki (competitive integrin binding assay) Human αvβ6; cited from earlier work

Ki [1] | Compound | Ki [2] | Ki [3]
> 1000 nM | CC[C@H](C)[C@H](NC(=O)[C@H](CCCNC(=N)N)NC(=O)[C@H](CCC(=O)O)NC(=O)[C@H](CCC(=O)O)NC(=O)CNC(=O)[C@H](CCCNC(=N)N)NC(=O)[C@H](CC(C)C)NC(=O)[C@@H](NC(=O)[C@H](CCC(=O)O)NC(=O)[C@H](Cc1ccccc1)NC(=O)[C@@H](N)CSC1CC(=O)N(CCNC(=O)CN2CCN(CC(=O)O)CCN(CC(=O)O)CC2)C1=O)[C@@H](C)O)C(=O)N[C@@H](CC(C)C)C(=O)N[C@@H](CO)C(=O)N[C@H](C(=O)N[C@@H](CC(C)C)C(=O)N[C@@H](CCCNC(=N)N)C(=O)N[C@@H](Cc1c[nH]cn1)C(=O)N[C@@H](CCC(N)=O)C(=O)N[C@@H](CC(N)=O)C(=O)N[C@@H](CC(C)C)C(=O)N[C@@H](CC(C)C)C(=O)N[C@@H](CCCCN)C(=O)N[C@@H](CCC(=O)O)C(=O)N[C@@H](CC(C)C)C(=O)N[C@@H](CCC(N)=O)C(=O)N[C@@H](CC(=O)O)C(N)=O)[C@@H](C)CC (some centres unmarked) [2a-NOTA] (H-C(X2)FETLRGEERILSILRHQNLLKELQD-NH2) |  | 
 | CFETLRGEERILSILRHQNLLKELQD-NH2 [2a] | > 50000 nM | > 50000 nM
> 200 nM | CIRLDLELINFQSDLQHELLKTRLRG [5a-Scr] |  | 
 | ac-FETLRGDLRILSILRX1QNLX2KELQD-CONH2 (sidechain bridge or staple) (Ac-FETLRGDLRILSILR[Pra]QNL[Lys(N3)]KELQD-NH2; triazole 16-20; not fully specified) [compound 5, chromogranin A-derived peptide with RGDL motif and triazole-stapled alpha-helix, previously developed by the authors] |  | 0.6 ± 0.1 nM

From article PMC9760430, “A stapled chromogranin A-derived peptide homes in on tumors that express αvβ6 or αvβ8 integrins” (International Journal of Biological Sciences, 2023)
